# According to patent US10919858B2, “Thioacetate compounds, compositions and methods of use” (ARDEA BIOSCIENCES, INC., priority 2010, dated 2021):
# Molecular target: URAT1 (Homo sapiens (Human), UniProt Q96S37)
# Assay: URAT1-model assay, 14C-uric acid transport in HEK293/URAT1-model cells
# Type: cell-based
# Settings: 14C-uric acid 125 μM, 10 minutes at room temperature, read-out: URAT1 EC50 Activity Ranking
# Experimental: HEK293 human embryonic kidney cells (ATCC #CRL-1573) were propagated in EMEM tissue culture medium as described by ATCC in an atmosphere of 5% C02 and 95% air. Transfections of HEK293 cells with a model URAT1 construct was performed using L2000 transfection reagent (Invitrogen) as described by the manufacturer. After 24 h the transfected cells were split into 10 cm tissue culture plates and grown for 1 day after which the medium was replaced with fresh growth medium containing G418 (Gibco) at 0.5 mg/ml final concentration. Drug-resistant colonies were selected after approximately 8 days and then tested for ^14C-uric acid transport activity. The HEK293/URAT1-model cells are plated on Poly-D-Lysine Coated 96-well Plates at a density of 125,000 cells per well.
# Cells were grown overnight (20-26 hours) at 37° C. in an incubator. Plates were allowed to come to room temperature and media was washed out with one wash of 250 μl of Wash Buffer (125 mM Na Gluconate, 10 mM Hepes ph 7.3). Compound or vehicle is added in assay buffer with ^14C-uric acid for a final concentration of 125 μM Uric Acid with a specific activity of 54 mCi/mmol. Assay Buffer is 125 mM Sodium Gluconate, 4.8 mM Potassium Gluconate, 1.2 mM Potassium phosphate, monobasic, 1.2 mM magnesium sulfate, 1.3 mM Ca Gluconate, 5.6 mM Glucose, 25 mM HEPES, pH 7.3. Plates were incubated at room temperature for 10 minutes then washed 3 times with 50 μl Wash Buffer and 3 times with 250 μl Wash Buffer. Microscint 20 Scintillation Fluid was added and plates were incubated overnight at room temperature to equilibrate. Plates are then read on the TopCount Plate Reader and an EC50 value generated. (See Enomoto et al, Nature, 2002, 417, 447-451 and Anzai et al, J. Biol. Chem., 2004, 279, 45942-45950.)
# Chain of URAT1 (Q96S37 whole entry, species assumed): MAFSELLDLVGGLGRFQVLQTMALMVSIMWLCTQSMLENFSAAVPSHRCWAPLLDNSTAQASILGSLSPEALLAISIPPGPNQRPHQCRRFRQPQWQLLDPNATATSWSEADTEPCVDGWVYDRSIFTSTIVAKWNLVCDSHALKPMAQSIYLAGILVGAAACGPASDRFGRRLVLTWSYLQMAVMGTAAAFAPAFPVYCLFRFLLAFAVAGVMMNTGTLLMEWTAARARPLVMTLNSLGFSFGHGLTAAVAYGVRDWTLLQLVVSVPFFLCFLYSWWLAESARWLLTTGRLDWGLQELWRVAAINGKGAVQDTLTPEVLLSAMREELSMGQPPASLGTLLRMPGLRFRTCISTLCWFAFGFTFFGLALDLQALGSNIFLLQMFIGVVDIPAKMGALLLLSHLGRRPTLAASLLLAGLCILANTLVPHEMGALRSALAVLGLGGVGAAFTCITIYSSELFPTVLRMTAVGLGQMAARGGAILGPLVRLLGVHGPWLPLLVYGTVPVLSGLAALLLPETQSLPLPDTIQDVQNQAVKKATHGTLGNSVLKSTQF
row,SMILES,EC50 [nM]
1,"CC(C)(Sc1cccnc1-c1ccc(C#N)cc1)C(=O)O [Example 1A, 2-(2-(4-Cyanophenyl)pyridin-3-ylthio)-2-methylpropanoic acid]",50 to 500
2,"CC(C)(Sc1ccncc1-c1ccc(C#N)cc1)C(=O)O [Example 2A, 2-(3-(4-Cyanophenyl)pyridin-4-ylthio)-2-methylpropanoic acid]",1 to 50
3,CC(C)(Sc1ccncc1-c1ccc(Br)c2ccccc12)C(=O)O [Example 2AA],50 to 500
4,Cc1ccc(-c2cnccc2SC(C)(C)C(=O)O)c2ccccc12 [Example 2BB],50 to 500
5,CC(C)(Sc1ccncc1-c1ccc(S(N)(=O)=O)cc1)C(=O)O [Example 2CC],50 to 500
6,CC(=O)Nc1ccc(-c2cnccc2SC(C)(C)C(=O)O)cc1 [Example 2DDD],50 to 500
7,CC(C)(Sc1ccncc1-c1cccc2ccccc12)C(=O)O [Example 2DD],50 to 500
8,CC(C)(Sc1ccncc1-c1ccc(S(=O)(=O)NC2CC2)cc1)C(=O)O [Example 2D],50 to 500
9,CC(C)(Sc1ccncc1-c1ccc(S(C)(=O)=O)cc1)C(=O)O [Example 2EEE],50 to 500
10,CC(C)(Sc1ccncc1-c1ccc(C#N)c(Cl)c1)C(=O)O [Example 2FFF],1 to 50
11,CC(C)(Sc1ccncc1-c1cnc2ccccc2c1)C(=O)O [Example 2F],50 to 500
12,CC(C)(Sc1ccncc1-c1cccc2ncccc12)C(=O)O [Example 2H],50 to 500
13,CC(C)(Sc1ccncc1-c1ccnc2ccccc12)C(=O)O [Example 2II],50 to 500
14,N#Cc1ccc(-c2cnccc2SC2(C(=O)O)CCC2)c2ccccc12 [Example 2J],1 to 50
15,COc1cncc(-c2cnccc2SC(C)(C)C(=O)O)c1 [Example 2MM],50 to 500
16,CC(C)(Sc1ccncc1-c1cncc2ccccc12)C(=O)O [Example 2U],50 to 500
17,CC(C)(Sc1ccncc1-c1ccc(F)c2ccccc12)C(=O)O [Example 2X],1 to 50
18,"CC(C)(Sc1cnccc1-c1ccc(C#N)cc1)C(=O)O [Example 3A, 2-(4-(4-Cyanophenyl)pyridin-3-ylthio)-2-methylpropanoic acid]",500 to 10000
19,N#Cc1ccc(-c2cccnc2SC2(C(=O)O)CCC2)c2ccccc12 [Example 4C],50 to 500
20,"N#Cc1ccc(-c2nccnc2SCC(=O)O)c2ccccc12 [Example 5A, 2-(3-(4-Cyanonaphthalen-1-yl)pyrazin-2-ylthio)acetic acid]",500 to 10000
21,"N#Cc1ccc(-c2cncnc2SCC(=O)O)c2ccccc12 [Example 6A, 2-(5-(4-Cyanonaphthalen-1-yl)pyrimidin-4-ylthio)acetic acid]",500 to 10000
22,"N#Cc1ccc(-c2ncncc2SCC(=O)O)c2ccccc12 [Example 7A, 2-(4-(4-Cyanonaphthalen-1-yl)pyrimidin-5-ylthio)acetic acid]",500 to 10000

# Further lines, results first:
row,EC50 [nM],SMILES
1,1 to 50,CC(C)(Sc1ccncc1-c1ccc(O)cc1)C(=O)O [Example 2AAA]
2,50 to 500,CC(C)(Sc1ccncc1-c1ccc(C#N)c(F)c1)C(=O)O [Example 2BBB]
3,50 to 500,Cc1ccc(-c2cnccc2SC(C)(C)C(=O)O)cc1 [Example 2CCC]
4,1 to 50,CC(C)(Sc1ccncc1-c1ccc(C#N)c2ccccc12)C(=O)O [Example 2C]
5,50 to 500,CC(C)(Sc1ccncc1-c1ccc(Cl)c(C(F)(F)F)c1)C(=O)O [Example 2EE]
6,50 to 500,CC(C)(Sc1ccncc1-c1ccc(S)cc1)C(=O)O [Example 2GGG]
7,50 to 500,CC(C)(Sc1ccncc1-c1ccc(F)cc1)C(=O)O [Example 2GG]
8,1 to 50,CC(C)(Sc1ccncc1-c1ccc(C#N)cc1F)C(=O)O [Example 2III]
9,50 to 500,CC(C)(Sc1ccncc1-c1ccc(C(N)=O)cc1F)C(=O)O [Example 2JJJ]
10,1 to 50,CC(C)(Sc1ccncc1-c1ccc(CO)cc1)C(=O)O [Example 2JJ]
11,50 to 500,CC(C)(Sc1ccncc1-c1ccc(C(N)=O)cc1)C(=O)O [Example 2KK]
12,50 to 500,CCc1ccc(-c2cnccc2SC(C)(C)C(=O)O)cc1 [Example 2K]
13,1 to 50,Cc1cc(C#N)ccc1-c1cnccc1SC(C)(C)C(=O)O [Example 2NN]
14,50 to 500,CC(C)(Sc1ccncc1-c1ccc(C(F)(F)F)cc1)C(=O)O [Example 2N]
15,1 to 50,CC(C)(Sc1ccncc1-c1ccc(Cl)cc1)C(=O)O [Example 2O]
16,1 to 50,CC(C)(Sc1ccncc1-c1ccncc1)C(=O)O [Example 2PP]
17,1 to 50,CC(C)(Sc1ccncc1-c1ccc(Cl)cc1)C(=O)O [Example 2P]
18,50 to 500,CSc1ccc(-c2cnccc2SC(C)(C)C(=O)O)cc1 [Example 2Q]
19,50 to 500,CC(C)(Sc1ccncc1-c1ccc(Cl)c(Cl)c1)C(=O)O [Example 2S]
20,50 to 500,CC(C)(Sc1ccncc1-c1cccc(C#N)c1)C(=O)O [Example 2TT]
21,50 to 500,COc1ccc(-c2cnccc2SC(C)(C)C(=O)O)cn1 [Example 2T]
22,1 to 50,CC(C)(Sc1ccncc1-c1ccc(Br)cc1)C(=O)O [Example 2UU]
23,50 to 500,Cc1cc(C(N)=O)ccc1-c1cnccc1SC(C)(C)C(=O)O [Example 2WW]
24,50 to 500,CC(C)(Sc1ccncc1-c1ccc(F)c(F)c1)C(=O)O [Example 2W]
25,50 to 500,COc1ccc(-c2cnccc2SC(C)(C)C(=O)O)cc1 [Example 2XX]
26,50 to 500,COc1cc(-c2cnccc2SC(C)(C)C(=O)O)ccc1C#N [Example 2ZZ]
